Columns and labels:
[1] = tested on: blackgrass; experiment: Test B pre/postemergence blackgrass; type: in vivo, Alopecurus myosuroides; conditions: Preemergence
Method in brief: (§1)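 Response is a visual 0-to-10 score relative to untreated plants, where 0 means no effect and 10 means complete control, taken twelve to sixteen days after application. Treatments went onto soil at planting and onto foliage of 1- to 4-leaf plants, using a surfactant-containing non-phytotoxic solvent.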

[2] = tested on: giant foxtail; experiment: Test B pre/postemergence giant foxtail; type: in vivo, Setaria faberii; conditions: Preemergence
Method in brief: as §1

[3] = tested on: smallflower flatsedge; experiment: Test B flood test smallflower flatsedge; type: in vivo, Cyperus difformis
Method in brief: (§2)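 Read-out is a visual response score from 0 (no effect) to 10 (complete control), assigned by comparison with untreated controls. Treatment was applied at the 2-leaf stage, and plants stayed in the greenhouse for twelve to sixteen days before scoring.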

[4] = tested on: sugar beet; experiment: Test B pre/postemergence sugar beet; type: in vivo, Beta vulgaris; conditions: Preemergence
Method in brief: as §1

[5] = tested on: bedstraw; experiment: Test B pre/postemergence bedstraw; type: in vivo, Galium aparine; conditions: Preemergence
Method in brief: as §1

[6] = tested on: wild oat; experiment: Test B pre/postemergence wild oat; type: in vivo, Avena fatua; conditions: Preemergence
Method in brief: as §1

[7] = tested on: pigweed; experiment: Test B pre/postemergence pigweed; type: in vivo, Amaranthus retroflexus; conditions: Preemergence
Method in brief: as §1

[8] = tested on: soybean; experiment: Test B pre/postemergence soybean; type: in vivo, Glycine max; conditions: Preemergence
Method in brief: as §1

[9] = tested on: cocklebur; experiment: Test B pre/postemergence cocklebur; type: in vivo, Xanthium strumarium; conditions: Preemergence
Method in brief: as §1

[10] = tested on: rice; experiment: Test B flood test rice; type: in vivo, Oryza sativa
Method in brief: as §2

[11] = tested on: rape; experiment: Test B pre/postemergence rape; type: in vivo, Brassica napus; conditions: Preemergence
Method in brief: as §1

[12] = tested on: surinam grass; experiment: Test B pre/postemergence surinam grass; type: in vivo, Brachiaria decumbens; conditions: Preemergence
Method in brief: as §1

[13] = tested on: purple nutsedge; experiment: Test B pre/postemergence purple nutsedge; type: in vivo, Cyperus rotundus; conditions: Preemergence
Method in brief: as §1

[14] = tested on: duck salad; experiment: Test B flood test duck salad; type: in vivo, Heteranthera limosa
Method in brief: as §2

[15] = tested on: crabgrass; experiment: Test B pre/postemergence crabgrass; type: in vivo, Digitaria sanguinalis; conditions: Preemergence
Method in brief: as §1

[16] = tested on: wheat; experiment: Test B pre/postemergence wheat; type: in vivo, Triticum aestivum; conditions: Preemergence
Method in brief: as §1

[17] = tested on: bamyardgrass; experiment: Test B flood test barnyardgrass; type: in vivo, Echinochloa crus-galli
Method in brief: as §2

[18] = tested on: corn; experiment: Test B pre/postemergence corn; type: in vivo, Zea mays; conditions: Preemergence
Method in brief: as §1

[19] = tested on: morningglory; experiment: Test B pre/postemergence morningglory; type: in vivo, Ipomoea hederacea; conditions: Preemergence
Method in brief: as §1

[20] = tested on: velvetleaf; experiment: Test B pre/postemergence velvetleaf; type: in vivo, Abutilon theophrasti; conditions: Preemergence
Method in brief: as §1

[21] = Rate 125 g/ha, scale of 0 to 10 where 0 is no effect and 10 is complete control
[22] = Rate 250 g/ha, scale 0 to 10 (0 no effect, 10 complete control)
[23] = Rate 500 g/ha, scale of 0 to 10 where 0 is no effect and 10 is complete control
[24] = Rate 1000 g/ha, scale 0 to 10 (0 no effect, 10 complete control)
[25] = Rate 62 g/ha, flood test species, Pre-emergence, visual evaluation after twelve to sixteen days
[26] = Rate 125 g/ha, under heading Pre-emergence, flood test species, visual evaluation after twelve to sixteen days
[27] = Rate 250 g/ha, Pre-emergence (flood test species), scale 0 to 10, 0 is no effect, 10 is complete control
[28] = Rate 500 g/ha, Pre-emergence section of Table B, 0 to 10 scale (0 no effect, 10 complete control)

For `COP(=O)(CCn1c(=O)on(C(=O)N(c2ccccc2)C(C)C)c1=O)OC` [Compound 697], the “Plant response rating, Blackgrass” value [1, 21] was 0, the “Plant response rating, Blackgrass” value [1, 22] was 2 and the “Plant response rating, Blackgrass” value [1, 23] was 6. For the same compound, the “Plant response rating, Blackgrass” value [1, 24] was 10, the “Plant response rating, Giant foxtail” value [2, 21] was 0 and the “Plant response rating, Giant foxtail” value [2, 24] was 10. The “Plant response rating, S. Flatsedge (0 to 10 scale, 0 is no effect, 10 is complete control)” value [3, 25] was 0, the “S. Flatsedge plant response rating (0 to 10 scale, 0 is no effect, 10 is complete control)” value [3, 26] was 0 and the “S. Flatsedge plant response rating” value [3, 27] was 0. For the same compound, the “S. Flatsedge plant response rating” value [3, 28] was 0, the “Plant response rating, Sugarbeets” value [4, 21] was 0 and the “Plant response rating, Sugarbeets” value [4, 24] was 0. For the same compound, the “Plant response rating, Bedstraw” value [5, 21] was 0, the “Plant response rating, Bedstraw” value [5, 22] was 0 and the “Plant response rating, Bedstraw” value [5, 23] was 0. For the same compound, the “Plant response rating, Bedstraw” value [5, 24] was 0, the “Plant response rating, Wild oats” value [6, 21] was 0 and the “Plant response rating, Wild oats” value [6, 24] was 9. For the same compound, the “Plant response rating, Redroot pigweed” value [7, 21] was 0, the “Plant response rating, Redroot pigweed” value [7, 24] was 0 and the “Plant response rating, Soybean” value [8, 21] was 0. For the same compound, the “Plant response rating, Soybean” value [8, 24] was 0, the “Plant response rating, Cocklebur” value [9, 22] was 0 and the “Plant response rating, Cocklebur” value [9, 23] was 0. The “Plant response rating, Cocklebur” value [9, 24] was 0, the “Plant response rating, Rice (0 to 10 scale, 0 is no effect, 10 is complete control)” value [10, 25] was 0 and the “Rice plant response rating (0 to 10 scale, 0 is no effect, 10 is complete control)” value [10, 26] was 0. For the same compound, the “Rice plant response rating” value [10, 27] was 0, the “Rice plant response rating” value [10, 28] was 0 and the “Plant response rating, Rape” value [11, 21] was 0. The “Plant response rating, Rape” value [11, 24] was 0, the “Plant response rating, B. signalgrass” value [12, 21] was 0 and the “Plant response rating, B. signalgrass” value [12, 22] was 0. For the same compound, the “Plant response rating, B. signalgrass” value [12, 23] was 5, the “Plant response rating, B. signalgrass” value [12, 24] was 9 and the “Plant response rating, Nutsedge” value [13, 21] was 0. The “Plant response rating, Nutsedge” value [13, 24] was 0, the “Plant response rating, Ducksalad (0 to 10 scale, 0 is no effect, 10 is complete control)” value [14, 25] was 0 and the “Ducksalad plant response rating (0 to 10 scale, 0 is no effect, 10 is complete control)” value [14, 26] was 0. For the same compound, the “Ducksalad plant response rating” value [14, 27] was 0, the “Ducksalad plant response rating” value [14, 28] was 0 and the “Plant response rating, Crabgrass” value [15, 21] was 0. The “Plant response rating, Crabgrass” value [15, 22] was 4, the “Plant response rating, Crabgrass” value [15, 24] was 9 and the “Plant response rating, Wheat” value [16, 21] was 0. For the same compound, the “Plant response rating, Wheat” value [16, 24] was 7, the “Plant response rating, Barnyardgrass (0 to 10 scale, 0 is no effect, 10 is complete control)” value [17, 25] was 0 and the “Barnyardgrass plant response rating (0 to 10 scale, 0 is no effect, 10 is complete control)” value [17, 26] was 0. The “Barnyardgrass plant response rating” value [17, 27] was 0, the “Barnyardgrass plant response rating” value [17, 28] was 0 and the “Plant response rating, Corn” value [18, 21] was 0. The “Plant response rating, Corn” value [18, 22] was 0, the “Plant response rating, Corn” value [18, 24] was 0 and the “Plant response rating, Morningglory” value [19, 21] was 0. For the same compound, the “Plant response rating, Morningglory” value [19, 24] was 5, the “Plant response rating, Velvetleaf” value [20, 21] was 0 and the “Plant response rating, Velvetleaf” value [20, 24] was 2.

— US6737383B1, “Herbicidal oxadiazolidines” (priority 1999, dated 2004)
